# In article PMC8774231, “Point Mutations at a Key Site Alter the Cytochrome P450 OleP Structural Dynamics” (Biomolecules, 2021):
# How the values were obtained:
# Experiment in all cases: UV-visible spectral titration, difference spectra, quadratic fit
# Type in all cases: binding
# cytochrome P450 OleP [1] = biological target: T1, cytochrome P450 OleP (Streptomyces antibioticus, UniProt Q59819, S240Y)
# T1 construct: recombinant His-tagged OleP mutants from pET28b(+)-OleP, expressed in E. coli BL21(DE3), monomer, heme-containing
# T1 sequence (Q59819 1-407 S240Y): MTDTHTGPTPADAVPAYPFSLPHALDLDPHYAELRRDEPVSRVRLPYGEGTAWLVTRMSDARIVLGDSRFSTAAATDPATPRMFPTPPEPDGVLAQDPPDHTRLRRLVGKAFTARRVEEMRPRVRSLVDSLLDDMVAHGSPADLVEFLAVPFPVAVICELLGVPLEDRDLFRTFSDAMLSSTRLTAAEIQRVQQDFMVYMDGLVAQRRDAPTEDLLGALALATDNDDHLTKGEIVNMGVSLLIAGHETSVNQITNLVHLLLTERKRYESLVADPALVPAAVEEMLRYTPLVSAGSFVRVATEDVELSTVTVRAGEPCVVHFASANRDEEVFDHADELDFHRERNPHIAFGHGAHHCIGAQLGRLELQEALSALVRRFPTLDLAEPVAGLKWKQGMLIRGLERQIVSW
# cytochrome P450 OleP [2] = biological target: T2, cytochrome P450 OleP (Streptomyces antibioticus, UniProt Q59819, G92W)
# T2 construct: recombinant His-tagged OleP mutants from pET28b(+)-OleP, expressed in E. coli BL21(DE3), monomer, heme-containing
# T2 sequence (Q59819 1-407 G92W): T1 sequence (Q59819 1-407 S240Y)
# cytochrome P450 OleP [3] = biological target: T3, cytochrome P450 OleP (Streptomyces antibioticus, UniProt Q59819, E89Y)
# T3 construct: recombinant His-tagged OleP mutants from pET28b(+)-OleP, expressed in E. coli BL21(DE3), monomer, heme-containing
# T3 sequence (Q59819 1-407 E89Y): T1 sequence (Q59819 1-407 S240Y)
compound,measurement,setting,value
CC[C@H]1OC(=O)[C@H](C)[C@@H](O)[C@H](C)[C@@H](O)[C@@H](C)C[C@@H](C)C(=O)[C@H](C)[C@@H](O)[C@H]1C [6DEB],Kd,cytochrome P450 OleP [1],700 ± 100 nM
same,Kd,cytochrome P450 OleP [2],1200 ± 100 nM
same,Kd,cytochrome P450 OleP [3],8500 ± 800 nM
